Values after ≈ are worked out from the molar mass of the structure shown. Where two headings read alike, the source gives them in different places.
Tests used:
MRSA (USA300) = assay: microbe, parasite or virus in culture; format: cell-based, Staphylococcus aureus; conditions: for MIC MRSA (USA300): aerobic, 37° C., at least 18 hours
Method: (§1) Method: The minimum inhibitory concentration (MIC) of the compounds and control drugs, linezolid (antibiotic), vancomycin (antibiotic), 5-fluorocytosine (5-FC, antifungal drug), and fluconazole (antifungal drug) was determined using the broth microdilution method according to the guidelines outlined by the Clinical and Laboratory Standards Institute (CLSI) against clinically relevant bacterial (methicillin-resistant Staphylococcus aureus (MRSA), vancomycin-resistant Enterococcus faecalis (VRE), vancomycin-resistant Enterococcus faecium (VRE), Clostridioides difficile and Escherichia coli) and fungal (Candida albicans) strains. A solution equivalent to 0.5 McFarland standard was prepared from each strain and diluted in cation-adjusted Mueller-Hinton broth (for S. aureus and E. coli), tryptone soy broth (for E. faecalis), or brain heart infusion broth (for E. faecium) to achieve a bacterial inoculum of about 5×10^5 CFU/mL. C. difficile strains were cultured in brain heart infusion broth supplemented with hemin and vitamin K. C. albicans was diluted in RPMI medium supplemented with 3-(N-morpholino) propanesulfonic acid to achieve a fungal concentration of about 1.5×10^3 CFU/mL. Compounds and control drugs were added in the first row of the 96-well plates and diluted with media containing bacteria (to achieve a concentration gradient ranging from 128 to 1 μg/mL). For MRSA, VRE, and E. coli strains, plates were then incubated aerobically at 37° C. for at least 18 hours. C. albicans was incubated aerobically at 37° C. for 24 hours. Plates containing C. difficile were incubated anaerobically at […] for 48 hours.

Clostridioides difficile = assay: MIC by broth microdilution against Clostridioides difficile (Table 1); format: cell-based; conditions: for MIC Clostridioides difficile: anaerobic, 48 hours, strain BAA-1870
Method: as §1

[1] = tested on: hypervirulent Clostridioides difficile strains; assay: MIC against hypervirulent Clostridioides difficile strains; format: cell-based
Method: (§2) The antibacterial activity of compounds 48, 50, 51, 61 and 85 against a panel of Clostridioides difficile strains was evaluated. A bacterial solution equivalent to 0.5 McFarland standard was prepared and diluted in brain heart infusion broth supplemented with hemin and vitamin K. Compounds and control drugs were added in the first row of 96-well plates and serially diluted with media containing bacteria (to achieve a concentration gradient ranging from 128 to 1 μg/mL). Plates were then incubated anaerobically at […] for 48 hours.

[2] = tested on: clinically important Clostridioides difficile strains; assay: MIC against clinically important Clostridioides difficile strains; format: cell-based
Method: as §2

L. gasseri = assay: MIC against human normal gut microbiota: L. gasseri; format: cell-based, Lactobacillus gasseri
Source text: (§3) The activity of the selected lactones against the human gut microbiota was also examined. Microbiota interfere with C. difficile's ability to colonize the gastrointestinal tract and subsequently cause infection. Many antibiotics inhibit/kill the endogenous microflora, which permits enhanced colonization by C. difficile and infection. Three different bacterial species that are present in the gut microflora were used in this experiment; Bifidobacterium (anaerobic Gram-positive bacteria), Bacteroides (anaerobic Gram-negative bacteria) and Lactobacillus (microaerophilic Gram-positive bacteria). Ideal compounds/drugs are those with selective antibacterial activity against C. difficile so as to protect the indigenous microflora present in the GI tract from being damaged/killed (which will exacerbate infections caused by C. difficile).
(§4) Bifidobacterium and Bacteroides were first grown for 48 hours at 37° C., anaerobically, using brain heart infusion supplemented (BHIS) agar (brain heart infusion agar supplemented with hemin, vitamin K and L-cysteine). Lactobacillus was cultivated on MRS agar and incubated in the presence of 5% CO2 for 48 hours at 37° C. Each bacterium was suspended in phosphate-buffered saline (PBS) to achieve 0.5 McFarland standard and subsequently diluted in brain heart infusion supplemented broth (for Bifidobacterium and Bacteroides) or in MRS broth (for Lactobacillus) to achieve a bacterial inoculum of approximately 5×10^5 CFU/mL. Bacteria were then seeded in 96-well plates containing serial dilutions of the compounds and incubated for 48 hours. MICs reported in Table 4 are the minimum concentration of compound/control drug that inhibited the visual growth of bacteria.

L. casei = assay: MIC against human normal gut microbiota: L. casei; format: cell-based, Lactobacillus casei
Source text: as §3, §4

L. reuteri = assay: MIC against human normal gut microbiota: L. reuteri; format: cell-based, Lactobacillus reuteri
Source text: as §3, §4

L. crispatus = assay: MIC against human normal gut microbiota: L. crispatus; format: cell-based, Lactobacillus crispatus
Source text: as §3, §4

Ba. fragilis = assay: MIC against human normal gut microbiota: Bacteroides fragilis; format: cell-based
Source text: as §3, §4

Ba. dorsei = assay: MIC against human normal gut microbiota: Bacteroides dorsei; format: cell-based
Source text: as §3, §4

Bi. breve = assay: MIC against human normal gut microbiota: Bifidobacterium breve; format: cell-based
Source text: as §3, §4

Bi. longum = assay: MIC against human normal gut microbiota: Bifidobacterium longum; format: cell-based
Source text: as §3, §4

COc1cc(C2OC(=O)C(CN3CCCCC3)C2c2ccccc2Br)ccc1OCc1ccccc1 (racemic) [Compound 27]
MIC MRSA (USA300) (MRSA (USA300)): >128 µg/mL
MIC Clostridioides difficile (Clostridioides difficile): 1 µg/mL (≈ 1.82 µM)
MIC ([1]; CD strain 81): 2 µg/mL (≈ 3.63 µM)
MIC ([1]; CD strain 82): 2 µg/mL (≈ 3.63 µM)
MIC ([1]; CD strain 83): 2 µg/mL (≈ 3.63 µM)
MIC ([1]; CD strain 84): 4 µg/mL (≈ 7.27 µM)
MIC ([1]; CD strain 85): 2 µg/mL (≈ 3.63 µM)
MIC ([1]; CD strain 86): 2 µg/mL (≈ 3.63 µM)
MIC ([1]; CD strain 87): 2 µg/mL (≈ 3.63 µM)
MIC ([1]; CD strain 90): 1 µg/mL (≈ 1.82 µM)
MIC ([1]; CD strain 49279): 2 µg/mL (≈ 3.63 µM)
MIC ([1]; CD strain 49287): 1 µg/mL (≈ 1.82 µM)
MIC ([1]; CD strain 49291): 1 µg/mL (≈ 1.82 µM)
MIC ([2]; CD strain 16): 1 µg/mL (≈ 1.82 µM)
MIC ([2]; CD strain 18): 2 µg/mL (≈ 3.63 µM)
MIC ([2]; CD strain 19): 1 µg/mL (≈ 1.82 µM)
MIC ([2]; CD strain 1801): 1 µg/mL (≈ 1.82 µM)
MIC ([2]; CD strain 43255): 1 µg/mL (≈ 1.82 µM)
MIC ([2]; CD strain P6): 2 µg/mL (≈ 3.63 µM)
MIC ([2]; CD strain P7): 1 µg/mL (≈ 1.82 µM)
MIC ([2]; CD strain P13): 1 µg/mL (≈ 1.82 µM)
MIC ([2]; CD strain P19): 2 µg/mL (≈ 3.63 µM)
MIC (L. gasseri; L. gasseri HM 407): >128 µg/mL
MIC (L. casei; L. casei HM 334): >128 µg/mL
MIC (L. reuteri; L. reuteri HM 120): >128 µg/mL
MIC (L. crispatus; L. crispatus HM 375): >128 µg/mL
MIC (L. crispatus; L. crispatus HM 421): >128 µg/mL
MIC (Ba. fragilis; Ba. fragilis HM 709): >128 µg/mL
MIC (Ba. fragilis; Ba. fragilis HM 710): >128 µg/mL
MIC (Ba. fragilis; Ba. fragilis HM 711): >128 µg/mL
MIC (Ba. fragilis; Ba. fragilis HM 714): >128 µg/mL
MIC (Ba. dorsei; Ba. dorsei HM 29): >128 µg/mL
MIC (Ba. dorsei; Ba. dorsei HM 717): >128 µg/mL
MIC (Bi. breve; Bi. breve HM 856): >128 µg/mL
MIC (Bi. longum; Bi. longum HM 848): >128 µg/mL

C=C1C(=O)O[C@H](c2ccccc2O)[C@@H]1c1cccc(C#N)c1 (racemic) [Compound 50]
MIC MRSA (USA300) (MRSA (USA300)): >128 µg/mL
MIC Clostridioides difficile (Clostridioides difficile): 8 µg/mL (≈ 27.5 µM)
MIC ([1]; CD strain 81): >128 µg/mL
MIC ([1]; CD strain 82): 64 µg/mL (≈ 220 µM)
MIC ([1]; CD strain 83): 128 µg/mL (≈ 439 µM)
MIC ([1]; CD strain 84): >128 µg/mL
MIC ([1]; CD strain 85): >128 µg/mL
MIC ([1]; CD strain 86): 128 µg/mL (≈ 439 µM)
MIC ([1]; CD strain 87): 128 µg/mL (≈ 439 µM)
MIC ([1]; CD strain 90): 128 µg/mL (≈ 439 µM)
MIC ([1]; CD strain 49279): >128 µg/mL
MIC ([1]; CD strain 49287): 128 µg/mL (≈ 439 µM)
MIC ([1]; CD strain 49291): 64 µg/mL (≈ 220 µM)
MIC ([2]; CD strain 16): 128 µg/mL (≈ 439 µM)
MIC ([2]; CD strain 18): 32 µg/mL (≈ 110 µM)
MIC ([2]; CD strain 19): 128 µg/mL (≈ 439 µM)
MIC ([2]; CD strain 1801): 128 µg/mL (≈ 439 µM)
MIC ([2]; CD strain 43255): 16 µg/mL (≈ 54.9 µM)
MIC ([2]; CD strain P6): 128 µg/mL (≈ 439 µM)
MIC ([2]; CD strain P7): 128 µg/mL (≈ 439 µM)
MIC ([2]; CD strain P13): 32 µg/mL (≈ 110 µM)
MIC ([2]; CD strain P19): 32 µg/mL (≈ 110 µM)
MIC (L. gasseri; L. gasseri HM 407): >128 µg/mL
MIC (L. casei; L. casei HM 334): >128 µg/mL
MIC (L. reuteri; L. reuteri HM 120): >128 µg/mL
MIC (L. crispatus; L. crispatus HM 375): >128 µg/mL
MIC (L. crispatus; L. crispatus HM 421): >128 µg/mL
MIC (Ba. fragilis; Ba. fragilis HM 709): >128 µg/mL
MIC (Ba. fragilis; Ba. fragilis HM 710): >128 µg/mL
MIC (Ba. fragilis; Ba. fragilis HM 711): >128 µg/mL
MIC (Ba. fragilis; Ba. fragilis HM 714): >128 µg/mL
MIC (Ba. dorsei; Ba. dorsei HM 29): >128 µg/mL
MIC (Ba. dorsei; Ba. dorsei HM 717): >128 µg/mL
MIC (Bi. breve; Bi. breve HM 856): >128 µg/mL
MIC (Bi. longum; Bi. longum HM 848): >128 µg/mL

CN[C@H](CC(C)C)C(=O)N[C@H]1C(=O)N[C@@H](CC(N)=O)C(=O)N[C@H]2C(=O)N[C@H]3C(=O)N[C@H](C(=O)N[C@H](C(=O)O)c4cc(O)cc(O)c4-c4cc3ccc4O)[C@H](O)c3ccc(c(Cl)c3)Oc3cc2cc(c3O[C@@H]2O[C@H](CO)[C@@H](O)[C@H](O)[C@H]2O[C@H]2C[C@](C)(N)[C@H](O)[C@H](C)O2)Oc2ccc(cc2Cl)[C@H]1O [Vancomycin, reference compound]
MIC (MRSA (USA300); Staphylococcus aureus, 18 h, read-out: MIC MRSA (USA300)): 1 µg/mL (≈ 0.69 µM)
MIC (Clostridioides difficile; Clostridioides difficile, BAA1870, 48 h, read-out: MIC Clostridioides difficile): 1 µg/mL (≈ 0.69 µM)
MIC ([1]; Clostridioides difficile, CD strain 81): 0.25 µg/mL (≈ 0.173 µM)
MIC ([1]; Clostridioides difficile, CD strain 82): 0.5 µg/mL (≈ 0.345 µM)
MIC ([1]; Clostridioides difficile, CD strain 83): 0.5 µg/mL (≈ 0.345 µM)
MIC ([1]; Clostridioides difficile, CD strain 84): 0.25 µg/mL (≈ 0.173 µM)
MIC ([1]; Clostridioides difficile, CD strain 85): 2 µg/mL (≈ 1.38 µM)
MIC ([1]; Clostridioides difficile, CD strain 86): 0.5 µg/mL (≈ 0.345 µM)
MIC ([1]; Clostridioides difficile, CD strain 87): 0.5 µg/mL (≈ 0.345 µM)
MIC ([1]; Clostridioides difficile, CD strain 90): 1 µg/mL (≈ 0.69 µM)
MIC ([1]; Clostridioides difficile, CD strain 49279): 1 µg/mL (≈ 0.69 µM)
MIC ([1]; Clostridioides difficile, CD strain 49287): 0.25 µg/mL (≈ 0.173 µM)
MIC ([1]; Clostridioides difficile, CD strain 49291): 0.25 µg/mL (≈ 0.173 µM)
MIC ([2]; Clostridioides difficile, CD strain 16, read-out: MIC): 1 µg/mL (≈ 0.69 µM)
MIC ([2]; Clostridioides difficile, CD strain 18, read-out: MIC): 0.5 µg/mL (≈ 0.345 µM)
MIC ([2]; Clostridioides difficile, CD strain 19, read-out: MIC): 1 µg/mL (≈ 0.69 µM)
MIC ([2]; Clostridioides difficile, CD strain 1801, read-out: MIC): 1 µg/mL (≈ 0.69 µM)
MIC ([2]; Clostridioides difficile, CD strain 43255, read-out: MIC): 1 µg/mL (≈ 0.69 µM)
MIC ([2]; Clostridioides difficile, CD strain P6, read-out: MIC): 1 µg/mL (≈ 0.69 µM)
MIC ([2]; Clostridioides difficile, CD strain P7, read-out: MIC): 1 µg/mL (≈ 0.69 µM)
MIC ([2]; Clostridioides difficile, CD strain P13, read-out: MIC): 1 µg/mL (≈ 0.69 µM)
MIC ([2]; Clostridioides difficile, CD strain P19, read-out: MIC): 1 µg/mL (≈ 0.69 µM)
MIC (L. gasseri; Lactobacillus gasseri): > 128 µg/mL
MIC (L. casei; Lacticaseibacillus casei): > 128 µg/mL
MIC (L. reuteri; Limosilactobacillus reuteri): > 128 µg/mL
MIC (L. crispatus; L. crispatus HM 375): ≤1 µg/mL
MIC (L. crispatus; Lactobacillus crispatus): ≤ 1 µg/mL
MIC (Ba. fragilis; Bacteroides fragilis, Ba. fragilis HM 710): 16 µg/mL (≈ 11 µM)
MIC (Ba. fragilis; Bacteroides fragilis, Ba. fragilis HM 711): 16 µg/mL (≈ 11 µM)
MIC (Ba. fragilis; Bacteroides fragilis, Ba. fragilis HM 714): 16 µg/mL (≈ 11 µM)
MIC (Ba. fragilis; Bacteroides fragilis, Ba. fragilis HM 709): 64 µg/mL (≈ 44.2 µM)
MIC (Ba. dorsei; Bacteroides, Ba. dorsei HM 717): 8 µg/mL (≈ 5.52 µM)
MIC (Ba. dorsei; Bacteroides, Ba. dorsei HM 29): 128 µg/mL (≈ 88.3 µM)
MIC (Bi. breve; Bifidobacterium breve): ≤ 1 µg/mL
MIC (Bi. longum; Bifidobacterium longum): 64 µg/mL (≈ 44.2 µM)
